Experimental data as given in paper PMC11085086, “Microwave-Assisted Atom Transfer Radical Cyclization in the Synthesis of 3,3-Dichloro-γ- and δ-Lactams from N-Alkenyl-Tethered Trichloroacetamides Catalyzed by RuCl2(PPh3)3 and Their Cytotoxic Evaluation” (Molecules, 2024).
≈ marks a conversion by molar mass, not a printed value.

Experiments:
[1] = system: murine Swiss albino fibroblasts (3T3); assay: Cell viability assay, NRU endpoint, 3T3; assay type: cell-based; conditions: Mus musculus, Fibroblast, 3T3, 24 h incubation, 10–250 µg/mL
Method: (§1) The murine Swiss albino fibroblasts (3T3), the human breast adenocarcinoma (MCF-7), the human epithelial carcinoma (HeLa) and the squamous cell carcinoma (A431) cell lines were obtained from Celltec UB. Cells were grown in DMEM medium (4.5 g/L glucose) supplemented with 10% (v/v) FBS, 2 mM L-glutamine, 100 U/mL penicillin and 100 µg/mL streptomycin at 37 °C, 5% CO2. Cells were routinely cultured in 75 cm^2 culture flasks and were trypsinized using trypsin–EDTA when the cells reached approximately 80% confluence. The trypan blue assay, which allows for a direct identification and enumeration of the live (unstained) and dead (blue) cells in the cell population, was used to evaluate the viability of the cells in the cell suspension obtained.
(§2) 3T3 (1 × 10^5 cells/mL), A431, HeLa and MCF-7 cells (5 × 10^4 cells/mL) were grown at defined densities in the 60 central wells of a 96-well plate. Cells were incubated for 24 h in 5% CO2 at 37 °C. Then, the spent medium was removed, and cells were incubated for 24 h with their corresponding compound solutions (1 mg/mL) previously diluted in a minimum amount of DMF (dimethylformamide) and then in DMEM medium supplemented with 5% FBS (100 µL) at the required concentration range (10–250 µg/mL). The viability of the cells upon incubation with the lactam derivatives was assayed using 2 different endpoints: NRU and MTT.
(§3) The neutral red uptake (NRU) assay is based on the accumulation of dye in the lysosomes of viable cells. After the cells were incubated for 24 h with the corresponding systems, the medium was removed, and the solutions were incubated with the NR dye (Sigma-Aldrich, St. Louis, MO, USA) solution (50 µg/mL) dissolved in the medium, without FBS and without phenol red (Lonza, Verviers, Belgium), for 3 h. Cells were then washed with sterile PBS, followed by the addition of 100 µL of a solution containing 50% absolute ethanol and 1% acetic acid in distilled water to extract the dye. To promote the total dissolution of the dye, plates were placed in a microtiter-plate shaker for 5 min at room temperature. The absorbance of the resulting solutions was measured at 550 nm (Bio-Rad 550 microplate reader, Bio-Rad California, Hercules, CA, USA). Finally, the effect of each treatment was calculated as the percentage of dye uptake by viable cells relative to the control cells (cells without any treatment).
(§4) The corresponding half-maximal inhibitory concentration (IC50) values for the different formulations as a function of the cell line and endpoint were determined from the fitting of concentration-dependent viability curves. The corresponding selectivity indexes toward tumoral cells were calculated using the following ratio: SI = IC50 (non-tumoral cell line)/IC50 (tumoral cell line) where 3T3 fibroblasts were used as close representative cells under non-tumoral conditions. Moreover, pseudo selectivity indexes toward tumoral cells were calculated considering the discrete cellular responses at the maximum tested concentration (250 µg/mL).

[2] = system: 3T3, A431, HeLa and MCF-7 cell lines; assay: Cell viability assays (MTT and NRU), endpoint and cell line not specified; assay type: cell-based; conditions: range over cell lines; read-out: lowest IC50 values as a function of cell line
Method: as §1, with “The trypan blue assay, which allows for a direct identification and enumeration of the live (unstained) and dead (blue) cells in the cell population, was used to evaluate the viability of the cells in the cell suspension obtained.” left out
The neutral red uptake (NRU) assay is based on the accumulation of dye in the lysosomes of viable cells. […] The absorbance of the resulting solutions was measured at 550 nm (Bio-Rad 550 microplate reader, Bio-Rad California, Hercules, CA, USA). Finally, the effect of each treatment was calculated as the percentage of dye uptake by viable cells relative to the control cells (cells without any treatment).
Only living cells can reduce the yellow tetrazolium salt 3-(4,5-dimethyl-2-thiazolyl)-2,5-diphenyltetrazolium bromide (MTT) to insoluble purple formazan crystals. […] Agitation and determination of the absorbance of the extracted solution were performed under the same conditions as described in NRU Assay section. Finally, the effect of each treatment was calculated as the percentage of tetrazolium salt’s reduction by viable cells relative to control cells (cells without any treatment). […]

[3] = system: human epithelial carcinoma (HeLa) cell line; assay: Cell viability assay, NRU endpoint, HeLa; assay type: cell-based; conditions: 24 h incubation, 10–250 µg/mL
Method: as §1, §2, §3, §4

[4] = Cell viability assay, MTT endpoint, 3T3; assay type: cell-based, murine; conditions: mouse, 3T3 fibroblasts, 3T3, 250 µg/mL, 24 h
Method: as §1, §2
(§5) Only living cells can reduce the yellow tetrazolium salt 3-(4,5-dimethyl-2-thiazolyl)-2,5-diphenyltetrazolium bromide (MTT) to insoluble purple formazan crystals. After a 24 h incubation of the cells with their corresponding NPs, the medium was removed and 100 µL of MTT (Sigma-Aldrich, St. Louis, USA) in PBS (5 mg/mL) diluted 1:10 in culture medium without phenol red and without FBS (Lonza, Verviers, Belgium) was added to the cells. After 3 h of incubation, the medium was removed. Thereafter, 100 µL of DMSO (Sigma-Aldrich, St. Louis, MO, USA) was added to each well to dissolve the purple formazan crystals. Agitation and determination of the absorbance of the extracted solution were performed under the same conditions as described in NRU Assay section. Finally, the effect of each treatment was calculated as the percentage of tetrazolium salt’s reduction by viable cells relative to control cells (cells without any treatment).
as §4

[5] = system: murine Swiss albino fibroblasts (3T3); assay: Cell viability assay, MTT endpoint, 3T3; assay type: cell-based; conditions: Mus musculus, Fibroblast, 3T3, 24 h incubation, 10–250 µg/mL
Method: as §1, §2, §5, §4

[6] = system: squamous cell carcinoma (A431) cell line; assay: Cell viability assay, NRU endpoint, A431; assay type: cell-based; conditions: A431 compared to 3T3, 250 µg/mL, 24 h
Method: as §1, §2, §3, §4

[7] = Cell viability assay, MTT endpoint, A431; assay type: cell-based; conditions: human, A431 squamous cell carcinoma cells, A431, highest assayed concentration 250 µg/mL, 24 h
Method: as §1, §2, §5, §4

[8] = system: squamous cell carcinoma (A431) cell line; assay: Cell viability assay, MTT endpoint, A431; assay type: cell-based
Method: as §1, §2, §5, §4

[9] = Hemolysis assay with human erythrocyte suspension; assay type: cell-based; conditions: human, washed human erythrocyte suspension, PBS pH 7.4, read-out: degree of hemolysis
Method: Human blood samples were obtained from the Banc de Sang i Teixits de Barcelona (Spain) from the Catalan Department of Health. Blood was deposited in tubes with the anticoagulant EDTA-K3. Blood samples were centrifuged at 3000 rpm and 4 °C for 10 min (Megafuge 2.0 R. Heraeus Instruments, Hanau, Germany) to induce sedimentation. Plasma was extracted with a Pasteur pipette. Next, the residual pellet was washed with PBS at pH 7.4. This procedure was repeated three times to remove residual leukocytes and platelets and to concentrate the erythrocytes. Following the last wash, the erythrocyte suspension was diluted (1:1) in PBS at pH 7.4 to obtain a suitable erythrocyte suspension (cell density of 8 × 10^9 cell/mL).
The hemolysis assay determined the capability of different compounds to induce the hemolysis of the erythrocyte membrane. Stock solutions of each compound at 1 mg/mL in PBS at pH 7.4 were prepared. Different volumes (10–80 μL) were placed in polystyrene tubes, and an aliquot of 25 µL of the erythrocyte suspensions was added to each tube. The final volume was 1 mL. The tubes were incubated at room temperature under rotatory conditions. Then, the tubes were centrifuged at 10,000 rpm for 5 min. The supernatants’ absorbance at 540 nm (Shimadzu UV-160A, Shimadzu, Duisburg, Germany) was compared with that of the positive (erythrocytes hemolyzed with distilled water) and negative (erythrocyte suspension in PBS at pH 7.4.) controls.
The degree of hemolysis was determined using the following equation:Hemolysis (%) = 100 × (Abs − Abs0)/(Abs100 − Abs0) where Abs, Abs0 and Abs100 are the absorbance of the test samples, of the suspension treated with isotonic phosphate–buffered saline (PBS) and of the suspension of complete hemolysis treated with distilled water, respectively.

[10] = system: human epithelial carcinoma (HeLa) cell line; assay: Cell viability assay, MTT endpoint, HeLa; assay type: cell-based
Method: as §1, §2, §5, §4

[11] = Cell viability assay, MTT endpoint, HeLa; assay type: cell-based, human; conditions: human, HeLa cells, HeLa, 250 µg/mL, 24 h
Method: as §1, §2, §5, §4

[12] = system: human breast adenocarcinoma (MCF-7) cell line; assay: Cell viability assay, NRU endpoint, MCF-7; assay type: cell-based; conditions: Homo sapiens, MCF7, 24 h incubation, 10–250 µg/mL
Method: as §1, §2, §3, §4

[13] = Cell viability assay, NRU endpoint, cell line not specified; assay type: cell-based; conditions: up to 250 µg/mL, read-out: minimum cell viability values
Method: as §1, §2, §3

[14] = system: human breast adenocarcinoma (MCF-7) cell line; assay: Cell viability assay, MTT endpoint, MCF-7; assay type: cell-based; conditions: MTT
Method: as §1, §2, §5, §4

For O=C1N(Cc2ccccc2)[C@@H]2CC[C@@H](Cl)[C@@H](C2)C1(Cl)Cl (racemic) [2k, (1RS,5RS,6RS)-2-Benzyl-4,4,6-trichloro-2-azabicyclo[3.3.1] nonan-3-one], the melting point was 116 to 118 °C.
C[C@@H](Cl)[C@H]1CN(C(C)(C)C)C(=O)C1(Cl)Cl (racemic) [epi-2g, (RS)-1-(tert-Butyl)-3,3-dichloro-4-((RS)-1-chloroethyl)pyrrolidin-2-one] showed a melting point of 113 to 114 °C.
CC(C)(C)N1CC(CCl)C(Cl)(Cl)C1=O (centres unmarked) [2a, 1-(tert-Butyl)-3,3-dichloro-4-(chloromethyl)pyrrolidin-2-one] showed an IC50 [1] of over 250 µg/mL, an IC50 [2] of 100 to 250 µg/mL (≈ 387 to 967 µM) and an IC50 [3] of over 250 µg/mL. For the same compound, the viability at 24 h, 250 µg/mL [4] was 15%, the IC50 [5] was 172 µg/mL (≈ 665 µM) and the “SI250 (selective toxicity at 250 µg/mL)” value [6] was 2.2. For the same compound, the viability at 24 h, 250 µg/mL [7] was 5%, the “MTT IC50 A431” value ([8]; A431, 24 h incubation, 10–250 µg/mL) was 126 µg/mL and the “SI250 (selective toxicity at 250 µg/mL)” value ([8]; A431 compared to 3T3, 250 µg/mL, 24 h) was 3.3. For the same compound, the IC50 ([8]; Homo sapiens, A-431, 24 h, A431, 24 h incubation, 10–250 µg/mL) was 192 µg/mL (≈ 743 µM), the “MTT SI A431” value ([8]; SI = IC50 (3T3)/IC50 (A431)) was 1.4 and the hemolysis at 10 µg/mL ([9]; 10 µg/mL) was 0.02%. The hemolysis at 80 µg/mL ([9]; 80 µg/mL) was about 0.07%, the “MTT IC50 Hela” value ([10]; HeLa, 24 h incubation, 10–250 µg/mL) was 109 µg/mL and the IC50 ([10]; Homo sapiens, HeLa, 24 h, 24 h incubation, 10–250 µg/mL) was 195 µg/mL (≈ 754 µM). For the same compound, the “MTT SI HeLa” value ([10]; SI = IC50 (3T3)/IC50 (HeLa)) was under 1, the viability at 24 h, 250 µg/mL [11] was 15% and the IC50 [12] was over 250 µg/mL. For the same compound, the viability at 24 h [13] was 30%, the IC50 ([14]; Homo sapiens, MCF7, 24 h incubation, 10–250 µg/mL) was over 250 µg/mL and the “MTT SI MCF7” value ([14]; SI = IC50 (3T3)/IC50 (MCF7)) was under 0.69.
